Data on 32 compounds can be found in ChEMBL document CHEMBL1134190, “Synthesis of substituted 4(Z)-(methoxyimino)pentyl-1-piperidines as dual NK1/NK2 inhibitors” (Bioorg Med Chem Lett, 2001).

Usually Ki stands for the dissociation constant of the complex between target and ligand, obtained from inhibition or displacement. Read a low Ki as higher affinity.

The target of one assay is Substance-P receptor (Homo sapiens, UniProt P25103). Description: Binding affinity towards NK1 receptor.
The next assay deals with T1, Substance-K receptor (Homo sapiens, UniProt P21452).
T1 sequence (P21452 whole entry): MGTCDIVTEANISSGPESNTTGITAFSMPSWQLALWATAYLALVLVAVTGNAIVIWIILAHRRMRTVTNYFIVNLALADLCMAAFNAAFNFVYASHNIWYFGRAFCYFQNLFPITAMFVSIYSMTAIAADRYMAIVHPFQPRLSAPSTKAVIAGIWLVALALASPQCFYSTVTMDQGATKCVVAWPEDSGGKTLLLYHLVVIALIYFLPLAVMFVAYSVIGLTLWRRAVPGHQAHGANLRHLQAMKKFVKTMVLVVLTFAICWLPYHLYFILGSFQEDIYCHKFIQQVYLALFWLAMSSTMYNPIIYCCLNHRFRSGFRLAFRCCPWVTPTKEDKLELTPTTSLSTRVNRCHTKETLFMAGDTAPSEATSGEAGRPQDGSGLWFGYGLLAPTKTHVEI
Description: Binding affinity towards NK2 receptor.

Chain of Substance-P receptor (P25103 whole entry): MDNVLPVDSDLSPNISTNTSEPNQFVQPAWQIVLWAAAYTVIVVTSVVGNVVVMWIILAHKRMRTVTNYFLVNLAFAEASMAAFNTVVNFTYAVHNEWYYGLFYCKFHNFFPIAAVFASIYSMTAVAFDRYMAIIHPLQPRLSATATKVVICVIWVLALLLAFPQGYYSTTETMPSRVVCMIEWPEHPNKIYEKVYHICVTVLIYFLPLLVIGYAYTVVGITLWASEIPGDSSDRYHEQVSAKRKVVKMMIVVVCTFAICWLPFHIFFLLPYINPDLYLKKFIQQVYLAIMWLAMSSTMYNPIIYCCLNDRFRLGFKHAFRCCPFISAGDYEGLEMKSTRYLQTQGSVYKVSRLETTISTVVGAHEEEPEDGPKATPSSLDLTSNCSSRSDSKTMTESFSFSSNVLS

For the compound `CO/N=C(\COCc1cc(C(F)(F)F)cc(C(F)(F)F)c1)C(CCN1CCC(CN2CCCCC2CO)CC1)c1ccc(Cl)c(Cl)c1` (stereo not drawn), the results for the Ki at Substance-P receptor and at Substance-K receptor were 20 nM and 53 nM, respectively.
In the case of `CO/N=C(\COCc1cc(C(F)(F)F)cc(C(F)(F)F)c1)C(CCN1CCC(N2CCCCC2=O)CC1)c1ccc(Cl)c(Cl)c1` (stereo not drawn), the Ki on Substance-P receptor was determined as 18 nM; at Substance-K receptor, 4 nM.
For `CO/N=C(\COCc1cc(C(F)(F)F)cc(C(F)(F)F)c1)C(CCN1CCC(N2CCCC2=O)CC1)c1ccc(Cl)c(Cl)c1` (stereo not drawn) the same measures were 9 nM and 7 nM.
`CO/N=C(\COCc1cc(C(F)(F)F)cc(C(F)(F)F)c1)C(CCN1CCC(CN2CCOCC2)CC1)c1ccc(Cl)c(Cl)c1` (stereo not drawn): the Ki was found to be 14 nM on Substance-P receptor and 39 nM at Substance-K receptor.
Turning to `CO/N=C(\COCc1cc(C(F)(F)F)cc(C(F)(F)F)c1)C(CCN1CCC(C(N)=O)CC1)c1ccc(Cl)c(Cl)c1` (stereo not drawn), on Substance-K receptor, the Ki was found to be 67 nM.
For the compound `CO/N=C(\COCc1cc(C(F)(F)F)cc(C(F)(F)F)c1)C(CCN1CCC(CN2CCCC(CO)C2)CC1)c1ccc(Cl)c(Cl)c1` (stereo not drawn), the Ki at Substance-P receptor came to 50 nM; at Substance-K receptor it was 39 nM.
Regarding `CO/N=C(\COCc1cc(C(F)(F)F)cc(C(F)(F)F)c1)C(CCN1CCC(CN2CCCC(O)C2)CC1)c1ccc(Cl)c(Cl)c1` (stereo not drawn), the figures for the Ki on Substance-P receptor and at Substance-K receptor were 38 nM and 47 nM, respectively.
Consider `CCOC(=O)C1CCCN(CC2CCN(CCC(/C(COCc3cc(C(F)(F)F)cc(C(F)(F)F)c3)=N/OC)c3ccc(Cl)c(Cl)c3)CC2)C1` (stereo not drawn), for which the Ki at Substance-P receptor was found to be 16 nM; on Substance-K receptor, 28 nM.
In the same order, the values of `CO/N=C(\COCc1cc(C(F)(F)F)cc(C(F)(F)F)c1)C(CCN1CCC(CN2CCCC2=O)CC1)c1ccc(Cl)c(Cl)c1` (stereo not drawn) are 8 nM and 21 nM.
In the same order, the values of `C=CCC1CCCN(CC2CCN(CCC(/C(COCc3cc(C(F)(F)F)cc(C(F)(F)F)c3)=N/OC)c3ccc(Cl)c(Cl)c3)CC2)C1=O` (stereo not drawn) are 13 nM and 58 nM.
In the same order, the values of `CO/N=C(\COCc1cc(C(F)(F)F)cc(C(F)(F)F)c1)C(CCN1CCC(CN2CCCC(Cc3ccccc3)C2=O)CC1)c1ccc(Cl)c(Cl)c1` (stereo not drawn) are 69 nM and 91 nM.
As to `CCOC(=O)C1CCCN(C2CCN(CCC(/C(COCc3cc(C(F)(F)F)cc(C(F)(F)F)c3)=N/OC)c3ccc(Cl)c(Cl)c3)CC2)C1` (stereo not drawn), the Ki on Substance-P receptor is 117 nM; on Substance-K receptor, 20 nM.
For `CO/N=C(\COCc1cc(C(F)(F)F)cc(C(F)(F)F)c1)C(CCN1CCC(CN2CCCCC2)CC1)c1ccc(Cl)c(Cl)c1` (stereo not drawn), the results for the Ki on Substance-P receptor and on Substance-K receptor were 36 nM and 26 nM, respectively.
`CO/N=C(\COCc1cc(C(F)(F)F)cc(C(F)(F)F)c1)C(CCN1CCC(NC(=O)C2CCCCC2)CC1)c1ccc(Cl)c(Cl)c1` (stereo not drawn): the Ki is 44 nM at Substance-P receptor and 146 nM at Substance-K receptor.
In the same order, the values of `CO/N=C(\COCc1cc(C(F)(F)F)cc(C(F)(F)F)c1)C(CCN1CCC(N2CCCCC2CO)CC1)c1ccc(Cl)c(Cl)c1` (stereo not drawn) are 14 nM and 15 nM.
In the same order, the values of `CO/N=C(\COCc1cc(C(F)(F)F)cc(C(F)(F)F)c1)C(CCN1CCC(CNC(=O)c2ccccc2)CC1)c1ccc(Cl)c(Cl)c1` (stereo not drawn) are 112 nM and 137 nM.
On to `CO/N=C(\COCc1cc(C(F)(F)F)cc(C(F)(F)F)c1)C(CCN1CCC(N2CCCC2)CC1)c1ccc(Cl)c(Cl)c1` (stereo not drawn), for which the Ki on Substance-P receptor worked out at 36 nM; at Substance-K receptor it was 195 nM.
For `CO/N=C(\COCc1cc(C(F)(F)F)cc(C(F)(F)F)c1)C(CCN1CCC(CN2CCCC(CC(O)CO)C2=O)CC1)c1ccc(Cl)c(Cl)c1` (stereo not drawn) the same measures were 7 nM and 16 nM.
In the same order, the values of `CO/N=C(\COCc1cc(C(F)(F)F)cc(C(F)(F)F)c1)C(CCN1CCC(N2CCC(OC(=O)NC(C)C)C2)CC1)c1ccc(Cl)c(Cl)c1` (stereo not drawn) are 19 nM and 67 nM.
For `CO/N=C(\COCc1cc(C(F)(F)F)cc(C(F)(F)F)c1)C(CCN1CCC(NC(=O)c2ccccc2)CC1)c1ccc(Cl)c(Cl)c1` (stereo not drawn) the same measures were 18 nM and 144 nM.
As for `CO/N=C(\COCc1cc(C(F)(F)F)cc(C(F)(F)F)c1)C(CCN1CCC(CN2CCCCC2=O)CC1)c1ccc(Cl)c(Cl)c1` (stereo not drawn), the Ki is 10 nM at Substance-P receptor and 12 nM at Substance-K receptor.
In the same order, the values of `CO/N=C(\COCc1cc(C(F)(F)F)cc(C(F)(F)F)c1)C(CCN1CCC(CN2CCCC(CC3CC3)C2=O)CC1)c1ccc(Cl)c(Cl)c1` (stereo not drawn) are 14 nM and 26 nM.
On to `CO/N=C(\COCc1cc(C(F)(F)F)cc(C(F)(F)F)c1)C(CCN1CCC(N2CCC[C@H]2C(N)=O)CC1)c1ccc(Cl)c(Cl)c1` (stereo partly drawn), for which the results for the Ki on Substance-P receptor and on Substance-K receptor were 13 nM and 11 nM, respectively.
For `CO/N=C(\COCc1cc(C(F)(F)F)cc(C(F)(F)F)c1)C(CCN1CCC(C(=O)N2CCCC2)CC1)c1ccc(Cl)c(Cl)c1` (stereo not drawn) the same measures were 6 nM and 59 nM.
In the case of `CO/N=C(\COCc1cc(C(F)(F)F)cc(C(F)(F)F)c1)C(CCN1CCC(CN2CCCCC2=S)CC1)c1ccc(Cl)c(Cl)c1` (stereo not drawn), the values for the Ki on Substance-P receptor and at Substance-K receptor were 20 nM and 23 nM, respectively.
In the same order, the values of `CO/N=C(\COCc1cc(C(F)(F)F)cc(C(F)(F)F)c1)C(CCN1CCC(CN2CCCC(C(N)=O)C2)CC1)c1ccc(Cl)c(Cl)c1` (stereo not drawn) are 25 nM and 27 nM.
Regarding `CO/N=C(\COCc1cc(C(F)(F)F)cc(C(F)(F)F)c1)C(CCN1CCC(N2CCC(O)C2)CC1)c1ccc(Cl)c(Cl)c1` (stereo not drawn), the results for the Ki on Substance-P receptor and on Substance-K receptor were 4 nM and 16 nM, respectively.
Take `CO/N=C(\COCc1cc(C(F)(F)F)cc(C(F)(F)F)c1)C(CCN1CCC(N2CCCC(C(N)=O)C2)CC1)c1ccc(Cl)c(Cl)c1` (stereo not drawn): the figures for the Ki on Substance-P receptor and on Substance-K receptor were 13 nM and 11 nM, respectively.
Regarding `CO/N=C(\COCc1cc(C(F)(F)F)cc(C(F)(F)F)c1)C(CCN1CCC(CNC2(CO)CCCC2)CC1)c1ccc(Cl)c(Cl)c1` (stereo not drawn), the Ki at Substance-P receptor was 24 nM; on Substance-K receptor it was 16 nM.
In the same order, the values of `CO/N=C(\COCc1cc(C(F)(F)F)cc(C(F)(F)F)c1)C(CCN1CCC(CN2CCCC(OC(=O)NC(C)C)C2)CC1)c1ccc(Cl)c(Cl)c1` (stereo not drawn) are 17 nM and 33 nM.
As to `CO/N=C(\COCc1cc(C(F)(F)F)cc(C(F)(F)F)c1)C(CCN1CCC(N2CCCC2=S)CC1)c1ccc(Cl)c(Cl)c1` (stereo not drawn), the Ki at Substance-P receptor stood at 16 nM; on Substance-K receptor, 23 nM.
For `CO/N=C(\COCc1cc(C(F)(F)F)cc(C(F)(F)F)c1)C(CCN1CCC(CN2CCCCC2CCO)CC1)c1ccc(Cl)c(Cl)c1` (stereo not drawn) the same measures were 13 nM and 14 nM.
